Reference: patent US11696913B2, “Prolonged ectoparasite-controlling agent for animal” (MITSUI CHEMICALS AGRO, INC., priority 2017, dated 2023)

Assays:
[1] = system: Rhipicephalus (Boophilus) microplus; experiment: In vitro injection test with Rhipicephalus (Boophilus) microplus (BOOPMI Inj); conditions: 168 h, laid fertile eggs after 7 days, read-out: acaricidal activity; for pest or weed control at 0.00016 mg: dose 0.16 μg/animal injected; for pest or weed control at 0.0008 mg: dose 0.8 μg/animal injected; for pest or weed control at 32 ng: dose 0.032 μg/animal injected
Procedure: In Vitro Injection Test with Rhipicephalus (Boophilus) Microplus (BOOPMI Inj)
To produce an appropriate mixture for injection, the test substance was dissolved and diluted in dimethyl sulphoxide to the desired concentration. 1 μl of the test mixture was injected into the abdomen of each of 5 engorged adult female cattle ticks (Rhipicephalus (Boophilus) microplus). The ticks were transferred into petri dishes and maintained in a climate-controlled room [28° C., 85% rel. hum.].
Acaricidal activity against cattle ticks was assessed after 7 days by assessment of laid fertile eggs. […] An acaricidal activity of 100% means that none of the ticks laid eggs or laid eggs were infertile; 0% means that the ticks laid eggs, and all the eggs were fertile.

Rhipicephalus sanguineus = experiment: In vitro contact test with adult hard ticks (Rhipicephalus sanguineus); conditions: read-out: acaricidal activity; for pest or weed control at 0.04 µg/cm2, 0.04 µg/cm2: dose 0.04 μg/cm^2, 48 h; for pest or weed control at 0.2 µg/cm2, 0.2 µg/cm2: dose 0.2 μg/cm^2, 48 h; for pest or weed control at 1 µg/cm2, 1 µg/cm2: dose 1 μg/cm^2, 48 h
Procedure: (§1) In Vitro Contact Tests with Adult Hard Ticks
(§2) In vitro contact tests with ticks were conducted with adult males and females of Rhipicephalus sanguineus, Ixodes ricinus, or Dermacentor variabilis, or nymphs of Amblyomma americanum.
(§3) For the coating of the test vials, the test substance was dissolved and diluted in acetone p.a. to the desired concentration. The solution was then homogeneously applied to the inner wall and base of a glass vial by turning and rocking on an orbital shaker until complete evaporation of the solvent. For example, with a 900 ppm solution of test substance, an area-based dose of 5 μg/cm^2 was achieved.
(§4) After the solvent was completely evaporated, 5-10 adult ticks were put in each coated test vial, which was then sealed with a perforated plastic lid and incubated in a horizontal position in the dark at room temperature and ambient humidity (Rhipicephalus sanguineus) or in a climate-controlled cabinet (Ixodes ricinus, Dermacentor variabilis, Amblyomma americanum [21° C., 85% rel. hum.]). Acaricidal activity against the respective tick species was determined after 48 h. For this, ticks were collected to the base of the test vial by gentle knocking, and test vials were then incubated on a hotplate at 45-50° C. for no longer than 5 min. Ticks which remained motionless on the base of the test vial or moved uncoordinated without deliberately climbing up to avoid the heat were considered dead or moribund, respectively.
(§5) A substance was judged to have good acaricidal activity against the respective tick species when at least 80% of ticks were found dead or moribund at a dose of the substance of g/cm^2. An acaricidal activity of 100% means all ticks were dead or moribund. An acaricidal activity of 0% means none of the ticks was found dead or moribund.

Amblyomma americanum = experiment: In vitro contact test with hard ticks (Amblyomma americanum nymphs); conditions: read-out: acaricidal activity; for pest or weed control at 0.2 µg/cm2, 0.2 µg/cm2: dose 0.2 μg/cm^2, 48 h; for pest or weed control at 1 µg/cm2, 1 µg/cm2: dose 1 μg/cm^2, 48 h
Procedure: as §1, §2, §3, §4, §5

Ctenocephalides felis [2] = experiment: Ctenocephalides felis in-vitro feeding test with fleas (CTECFE oral); conditions: 48 hours, read-out: insecticidal feeding activity; for pest or weed control at 0.16 ppm: dose 0.16 ppm in citrated cattle blood; for pest or weed control at 0.8 ppm: dose 0.8 ppm in citrated cattle blood; for pest or weed control at 4 ppm: dose 4 ppm in citrated cattle blood
Procedure: Ctenocephalides felis In-Vitro Feeding Test with Fleas (CTECFE Oral)
To prepare a test blood mixture for feeding fleas, the test substance was dissolved in dimethyl sulphoxide and diluted with citrated cattle blood to the desired concentration.
To assemble the test set-up, about 20 unfed adult male and female cat fleas
(Ctenocephalides felis) were placed in a chamber which was closed at the top and bottom with gauze. A metal cylinder was sealed at one end with parafilm membrane, placed with the sealed base onto the chamber, and filled with the test blood mixture, which could be imbibed by the fleas through the parafilm membrane. The assembled test set-up was maintained at about 37° C. After 48 hours, the insecticidal feeding activity against fleas was determined. 100% means that all of the fleas were killed; 0% means that none of the fleas was killed.

Ctenocephalides felis [3] = experiment: In vitro contact test with fleas; conditions: read-out: insecticidal activity; for pest or weed control at 0.2 µg/cm2, 0.2 µg/cm2: dose 0.2 μg/cm^2, dead or moribund fleas after 48 h; for pest or weed control at 1 µg/cm2, 1 µg/cm2: dose 1 μg/cm^2, dead or moribund fleas after 48 h; for pest or weed control at 0.04 µg/cm2, 0.04 µg/cm2: dose 0.04 μg/cm^2, dead or moribund fleas after 48 h
Procedure: In Vitro Contact Tests with Fleas
In vitro contact tests with fleas were conducted with adult male and female cat fleas (Ctenocephalides felis).
To coat the test tubes, the test substance was dissolved and diluted in acetone p.a. to the desired concentration. The solution was then homogeneously applied to the inner wall and base of a glass tube by turning and rocking on an orbital shaker until complete evaporation of the solvent. For example, with a 900 ppm solution of test substance, an area-based dose of 5 μg/cm^2 was achieved.
Upon complete evaporation of the solvent, 5-10 adult cat fleas (Ctenocephalides felis) were added to each coated tube, which was then sealed with a perforated plastic lid and incubated in a horizontal position at room temperature and ambient humidity. After 48 h, insecticidal activity against fleas was determined. For this, fleas were collected to the base of the tube by knocking the tube, and the tube was allowed to stand upright. Fleas which remained motionless at the base or moved in an uncoordinated manner were considered dead or moribund, respectively.
A substance was judged to have good insecticidal activity against Ctenocephalides felis when at least 80% of the fleas were found dead or moribund at a dose of the substance of μg/cm^2. 100% insecticidal activity means that all the fleas were found dead or moribund. 0% insecticidal activity means that no fleas were found dead or moribund.

Dermacentor variabilis = experiment: In vitro contact test with adult hard ticks (Dermacentor variabilis); conditions: read-out: acaricidal activity; for pest or weed control at 0.2 µg/cm2, 0.2 µg/cm2: dose 0.2 μg/cm^2, 48 h; for pest or weed control at 1 µg/cm2, 1 µg/cm2: dose 1 μg/cm^2, 48 h
Procedure: as §1, §2, §3, §4, §5

SMILES | pest or weed control at 0.00016 mg [1] [%] | pest or weed control at 0.0008 mg [1] [%] | pest or weed control at 0.04 µg/cm2, 0.04 µg/cm2 (Rhipicephalus sanguineus) [%] | pest or weed control at 0.2 µg/cm2, 0.2 µg/cm2 (Rhipicephalus sanguineus) [%] | pest or weed control at 1 µg/cm2, 1 µg/cm2 (Rhipicephalus sanguineus) [%] | pest or weed control at 0.2 µg/cm2, 0.2 µg/cm2 (Amblyomma americanum) [%] | pest or weed control at 1 µg/cm2, 1 µg/cm2 (Amblyomma americanum) [%] | pest or weed control at 0.16 ppm (Ctenocephalides felis [2]) [%] | pest or weed control at 0.8 ppm (Ctenocephalides felis [2]) [%] | pest or weed control at 4 ppm (Ctenocephalides felis [2]) [%] | pest or weed control at 0.2 µg/cm2, 0.2 µg/cm2 (Ctenocephalides felis [3]) [%] | pest or weed control at 1 µg/cm2, 1 µg/cm2 (Ctenocephalides felis [3]) [%] | pest or weed control at 0.2 µg/cm2, 0.2 µg/cm2 (Dermacentor variabilis) [%] | pest or weed control at 1 µg/cm2, 1 µg/cm2 (Dermacentor variabilis) [%] | pest or weed control at 32 ng [1] [%] | pest or weed control at 0.04 µg/cm2, 0.04 µg/cm2 (Ctenocephalides felis [3]) [%] | pest or weed control at 0.04 µg/cm2, 0.04 µg/cm2 (Dermacentor variabilis; dose 0.04 μg/cm^2, 48 h) [%] | pest or weed control at 6.4 ng ([1]; dose 0.0064 μg/animal injected) [%] | pest or weed control at 0.0064 ppm (Ctenocephalides felis [2]; dose 0.0064 ppm in citrated cattle blood) [%] | pest or weed control at 0.032 ppm (Ctenocephalides felis [2]; dose 0.032 ppm in citrated cattle blood) [%]
O=C(Nc1cccc(C(=O)Nc2c(Br)cc(C(F)(C(F)(F)F)C(F)(F)F)cc2OC(F)(F)F)c1)c1ccc([N+](=O)[O-])cc1 [Compound 11] | 100 | 100 | 90 | 90 | 90 | 90 | 90 | 95 | 95 | 95 | 95 | 95 | – | – | – | – | – | – | – | –
N#Cc1ccc(C(=O)Nc2cccc(C(=O)Nc3c(Br)cc(C(F)(C(F)(F)F)C(F)(F)F)cc3C(F)(F)F)c2)c(F)c1 [Compound 15] | 100 | 100 | – | 90 | 90 | 90 | 90 | – | – | 95 | 95 | 95 | – | – | – | – | – | – | – | –
N#Cc1ccc(C(=O)Nc2cccc(C(=O)Nc3c(I)cc(C(F)(C(F)(F)F)C(F)(F)F)cc3C(F)(F)F)c2)cc1 [Compound 19] | 100 | 100 | – | 90 | 90 | – | 90 | – | 95 | 95 | 95 | 95 | – | – | – | – | – | – | – | –
CN(C(=O)c1ccc(F)nc1)c1cccc(C(=O)Nc2c(Br)cc(C(F)(C(F)(F)F)C(F)(F)F)cc2C(F)(F)F)c1F [Compound 21] | 100 | 100 | 90 | 90 | 90 | 90 | 90 | – | 95 | 95 | 95 | 95 | 90 | 90 | 100 | 95 | – | – | – | –
CN(C(=O)c1ccc(C#N)cc1)c1cccc(C(=O)Nc2c(I)cc(C(F)(C(F)(F)F)C(F)(F)C(F)(F)F)cc2C(F)(F)F)c1F (stereo not shown) [Compound 23] | 100 | 100 | – | – | 90 | – | 90 | 95 | 95 | 95 | 95 | 95 | 90 | 90 | 100 | 95 | 90 | 100 | 95 | 95
O=C(Nc1cccc(C(=O)Nc2c(I)cc(C(F)(C(F)(F)F)C(F)(F)F)cc2C(F)(F)F)c1F)c1ccc(Cl)cc1Cl [Compound 33] | 100 | 100 | – | – | – | 90 | 90 | 95 | 95 | 95 | 95 | 95 | 90 | 90 | – | – | – | – | – | –
O=C(Nc1c(I)cc(C(F)(C(F)(F)F)C(F)(F)F)cc1C(F)(F)F)c1cccc(NC(=O)c2cc(F)c(F)cc2Cl)c1 [Compound 38] | 100 | 100 | – | – | – | 90 | 90 | 95 | 95 | 95 | 95 | 95 | – | 90 | – | – | – | – | – | –
O=C(Nc1c(I)cc(C(F)(C(F)(F)F)C(F)(F)F)cc1C(F)(F)F)c1cccc(NC(=O)c2ccc([N+](=O)[O-])cc2Cl)c1 [Compound 39] | 100 | 100 | – | – | 90 | 90 | 90 | – | 95 | 95 | – | 95 | – | – | – | – | – | – | – | –
